Experiments:
[1] = test system: differentiated mouse 3T3-L1 cells; assay: Mouse adipocyte lipolysis assay (Lipolysis Assay Kit, ZenBio); assay type: cell-based; conditions: 24 hours post-treatment, 3T3-L1 adipocytes
Description: Mouse 3T3-L1 cells were obtained from ATCC and cultured in Dulbecco's Modified Eagle's medium (DMEM) containing 10% newborn calf serum (NCS) and penicillin/streptomycin(P/S) at 37° C. in an incubator with 5% CO2. Once the cells became confluent, they were seeded into a tissue culture treated 96 well plate. Then, differentiation was initiated by using DMEM containing 10% fetal bovine serum, P/S, IBMX, dexamethasone, and insulin. After 14 days of differentiation, cells were treated with compounds of interest. After 24 hours post-treatment, the cell viability was assessed using CellTiter-Glo Luminescent Cell Viability Assay from Promega, and lipolysis was determined using Lipolysis Assay Kit from ZenBio. […] Table 1 lists the compounds that reduced the release of free fatty acids and glycerol (+, ++, or +++). The lipolytic rate of white adipose tissue is associated with metabolic dysfunction including insulin resistance and liver steatosis. Compounds that lower lipolysis of adipocytes may improve metabolic function including improving insulin sensitivity and reducing liver steatosis, thus improving outcomes in subjects with diabetes mellitus (e.g., prediabetes or type II diabetes), obesity, and hyperlipidemia.

mouse myocyte = assay: Mouse myocyte lipolysis assay; assay type: cell-based; conditions: differentiated myocytes
Description: Cells were obtained from ATCC and cultured in Dulbecco's Modified Eagle's medium (DMEM) containing 20% fetal bovine serum and 1% penicillin/streptomycin at 37° C. in an incubator with 5% CO2. Once the cells became confluent, they were seeded into a tissue culture treated 96 well plate. The next day, the medium containing DMEM with 2% equine serum was used to start differentiation. Table 2 lists the tested compounds including those that reduced the release of glycerol (+, ++, or +++). The lipolytic rate of muscle triglycerides is associated with metabolic dysfunction including insulin resistance and liver steatosis. Compounds that lower lipolysis of adipocytes may improve metabolic function including improving insulin sensitivity and reducing liver steatosis, thus improving outcomes in patients with diabetes mellitus (e.g., prediabetes or type II diabetes) obesity, and hyperlipidemia.

[2] = Assay 2. Stability in Simulated Intestinal Fluid (SIF); assay type: in vitro ADME; conditions: SIF pH 6.7 with pancreatin, 1 μM, 37° C.
Description: Assay 2. Stability of conjugates in Simulated Intestinal Fluid (SIF). This assay was used to assess the stability of an acylated cinnamic acid in a small intestine.
Phosphate buffer was prepared by dissolving 0.42 g of sodium hydroxide pellets and 3.95 g of monobasic sodium phosphate monohydrate and 6.19 g of sodium chloride in ultrapure water (MilliQ®, Millipore Sigma, Darmstadt, Germany). The pH was adjusted to 6.7 using aq. HCl and aq. NaOH, as necessary, and the solution was diluted with ultrapure water to produce 1 L of the pH 6.7 buffer.
112 mg FaSSIF powder (Biorelevant™, London, UK) was dissolved in 50 mL of the pH 6.7 buffer. 2 to 3 mL of the resulting solution were then added to 500 mg pancreatin (Millipore Sigma, Darmstadt, Germany). The resulting mixture was agitated by finger tapping the vessel containing the mixture until milky suspension formed. At this time, the remainder of the 50 mL FaSSiF/pH 6.7 buffer solution was added. The resulting suspension was flipped upside down 10 times to produce SIF, which was used fresh.
A test compound was dissolved in DMSO stock to 1 mM. An aliquot of the DMSO stock solution was removed and diluted in the SIF media in 15 mL falcon tubes to produce a mixture with a tested compound concentration of 1 μM. […] The resulting samples were analyzed by LC/MS to determine degradation rates

[3] = Assay 3. In vitro Colonic Material Stability Assay; assay type: in vitro ADME; conditions: colonic material slurry, anaerobic, 1 or 10 μM
Description: Assay 3. In vitro Colonic Material Stability Assay. This assay was used to assess the stability of an acylated cinnamic acid in a large intestine. All experiments were performed in an anaerobic chamber containing 90% nitrogen, 5% hydrogen and 5% carbon dioxide. Colonic material was resuspended as a slurry (15% w/v final concentration) in pre-reduced, anaerobically sterilized dilution blanks (Anaerobe Systems AS-908). The colonic material was then inoculated into 96 well plates containing YCFAC media (Anaerobe Systems AS-680) or other suitable media (6.7 μL slurry into 1 mL total media). A test compound was added to an individual well to reach a final analyte concentration of 1 or 10 μM, and the material was mixed by pipetting. Sample was removed after set timepoints (0, 120, 240, 480, 1440, 2880 minutes after initiation of the assay), quenched with acetonitrile containing internal standard, and analyzed by LC/MS.

[4] = Assay 1. Stability in Simulated Gastric Fluid (SGF); assay type: in vitro ADME; conditions: SGF pH 1.6 with pepsin, 1 μM, 37° C.
Description: Assay 1. Stability of conjugates in Simulated Gastric Fluid (SGF). This assay was used to assess the stability of an acylated cinnamic acid in a stomach.
Medium was prepared by dissolving 2 g of sodium chloride in 0.6 L in ultrapure water (MilliQ®, Millipore Sigma, Darmstadt, Germany). The pH was adjusted to 1.6 with 1N hydrochloric acid, and the volume was then adjusted to 1 L with purified water.
60 mg FaSSIF powder (Biorelevant™, London, UK) were dissolved in 500 mL buffer (above). Pepsin was added (0.1 mg/mL) (Millipore Sigma, Darmstadt, Germany), and the solution was stirred. The resulting SGF media were used fresh for each experiment.
A test compound was dissolved in DMSO stock to 1 mM. An aliquot of the DMSO stock solution was removed and diluted in the SGF Media in 15 mL falcon tubes to generate a total compound concentration of 1 μM. A 1 mL aliquot was immediately removed and diluted once with 1 volume of acetonitrile for T0 timepoint. The mixture was sealed and mixed at 37° C. in an incubator. Aliquots (1 mL) were removed at regular intervals and immediately quenched by the addition of 1 volume of acetonitrile. The resulting samples were analyzed by LC/MS to determine degradation rates in SGF.

C57BL/6 mice = assay: In vivo evaluation in mice fed a high-fat diet (84-day study); set-up: species or system mouse
Description: Animals were allowed free access to food and drinking water for the entire study. Animals were weighed on a regular basis, and food and drinking water consumption monitored. Plasma and stool samples were collected at the beginning of the study and 42 days into the study. Additional blood was drawn from fasted mice 58 days into the study. Insulin tolerance tests were performed 72 or 73 days into the study. Following an approximate 4 h fast, 0.5 Units/kg insulin was administered intraperitoneally. Blood was collected pre-insulin challenge (t=0) and at t=15, 30, 60, 90, and 120 min following insulin challenge. Oral glucose tolerance tests were performed 79 or 80 days into the study. Following an approximate 4 h fast, 2 g/kg glucose was administered by oral gavage. Blood was collected pre-insulin challenge (t=0) and at t=15, 30, 60, 90, and 120 min following glucose challenge. At the end of the study, body weight, food consumption, blood glucose, serum ALT levels, serum AST levels, serum cholesterol (total cholesterol. HDL, and LDL levels), serum triglycerides levels, liver triglyceride levels, liver cholesterol levels, liver weight, subcutaneous fat pad weight, and epididymal fat pad weight were measured in all mice.

O=C(O)/C=C/c1ccc(O)c(O)c1 [Caffeic acid]
Lipolysis Free Fatty Acids % DMSO ([1]; 100 μM): +++ (50%≤: +++)
Lipolysis Glycerol % change ([1]; 100 μM): +++ (50%≤: +++)
Free glycerol % DMSO (mouse myocyte; 100 μM): +++ (50%<: +++)

CC(=O)Oc1ccc(/C=C/C(=O)O)cc1OC(C)=O [compound 3, diacetyl caffeic acid]
Assay 2 (SIF) (% @ Remaining 4 hours) [2]: A (<25% of the tested compound remaining)
Assay 3 (% Remaining at 24 h) [3]: A (<25% of the tested compound remaining)
Assay 1 (SGF) (% Remaining @ 1 hour) [4]: C (>75% of the tested compound remaining)

CC(=O)O [Acetic acid]
Lipolysis Free Fatty Acids % DMSO ([1]; 1 mM): ++ (50 >≤ 70%: ++)
Lipolysis Glycerol % change ([1]; 1 mM): + (70% >≤90%: +)
Lipolysis Free Fatty Acids % DMSO ([1]; 3 mM): ++ (50 >≤ 70%: ++)
Lipolysis Glycerol % change ([1]; 3 mM): + (70% >≤90%: +)
Free glycerol % DMSO (mouse myocyte; 1 mM): = (90% >< 100%: =)
Free glycerol % DMSO (mouse myocyte; 3 mM): = (90% >< 100%: =)

CC(=O)O[C@@H]1OC[C@@H](OC(C)=O)[C@H](OC(C)=O)[C@H]1OC(C)=O [compound 4]
metabolic markers (e.g., glucose tolerance, insulin tolerance, cholesterol levels) (C57BL/6 mice; mice fed high-fat diet + test article): improve metabolic markers
weight loss (C57BL/6 mice; mice fed high-fat diet, over the study): induce weight loss

CCCC(=O)O [Butyric acid]
Lipolysis Free Fatty Acids % DMSO ([1]; 3 mM): ++ (50 >≤ 70%: ++)
Lipolysis Glycerol % change ([1]; 3 mM): ++ (50 >≤ 70%: ++)
Free glycerol % DMSO (mouse myocyte; 3 mM): +++ (50%<: +++)

CCC(=O)O [Propionic acid]
Lipolysis Free Fatty Acids % DMSO ([1]; 3 mM): +++ (50%≤: +++)
Lipolysis Glycerol % change ([1]; 3 mM): ++ (50 >≤ 70%: ++)
Free glycerol % DMSO (mouse myocyte; 3 mM): ++ (50 >< 70%: ++)

— US20220296555A1, “ACYLATED ACTIVE AGENTS AND METHODS OF THEIR USE FOR THE TREATMENT OF METABOLIC DISORDERS AND NONALCOHOLIC FATTY LIVER DISEASE” (Flagship Pioneering Innovations V, Inc., priority 2019, published 2022)
